# Measured values reported in patent US7625928B2, “Nitroxide radioprotector formulations and methods of use” (priority 2002, dated 2009).
# Test: In vitro percutaneous absorption of Tempol after multiple applications of Formulation V, Franz static diffusion cells, 30-minute exposures (Example II)
# Type: in vitro ADME, human
# Conditions: test 3, three applications, result in words
# Procedure: The skin was wiped with two dry cotton swabs after each application. Upon completion of the final application and skin wiping, the stratum corneum was removed from the skin. […] Franz static diffusion cells (15 mm diameter orifice, O-ring joint, Crown Bio Scientific, Clinton, N.J.) were mounted on 9-cell manifolds and maintained at a constant temperature of 32° C. by use of re-circulating water baths. […] Each diffusion cell was assembled by placing the excised human abdominal skin from a single donor dermal-side down and then a Teflon® O-ring (which rested in the groove of the donor side, top half, of the diffusion cell. The donor side (top half) of the diffusion cell was then placed on top of the O-ring resting on the skin and held in place by use of a pinch clamp. The joint between the donor and receptor compartments of each cell was wrapped with Parafilm® to prevent evaporation of the receptor solution. […] Air bubbles were dispelled from under the skin. […] The formulation was applied in an alternating fashion to 6 diffusion cells at 0.18 mL of formulation per cell. The diffusion cell sampling port was sealed with […] ® to prevent evaporation. […] If appropriate, the cell was re-dosed with test formulation after removal of the previous dose using two cotton swabs wiped across the skin surface. […]
structure (smiles),measurement,value
"CC1(C)CC(O)CC(C)(C)N1[O] [Tempol, 4-hydroxy-2,2,6,6-tetramethylpiperidine-1-oxyl]",third application levels versus levels in the second time point,twice as high
